The results in this text go back to ChEMBL document CHEMBL1122547, “Diastereomeric 6-desoxy-6-spiro-alpha-methylene-gamma-butyrolactone derivatives of naltrexone and oxymorphone. Selective irreversible inhibition of naltrexone binding in an opioid receptor preparation by a conformationally restricted michael acceptor ligand” (J Med Chem, 1984).

Assay [1] is described as follows: Ratio of IC50(presence of NaCl) to that of IC50(absence of NaCl).
For assay [2], the species on record is Mus musculus. The assay is described as follows: Compound was tested for irreversible inhibition of [3H]- Naltrexone binding with 10 nM naloxone+5 nM protection in the presence of NaCl (washed). In kind it is functional. On the set-up: scale not given: the % may be the effect or the level left.
Assay [3] is filed under the species Mus musculus. Put plainly: Compound was tested for irreversible inhibition of [3H]- Naltrexone binding with 10 nM naloxone+ 5 nM protection in the presence of NaCl (unwashed). In kind it is functional. More on the design: scale not given: the % may be the effect or the level left.
The species named for assay [4] is Mus musculus. Put plainly: Compound was tested for irreversible inhibition of [3H]- Naltrexone binding with 10 nM naloxone+ 5 nM protection in the presence of NaCl (washed). It counts as functional. On the set-up: scale not given: the % may be the effect or the level left.

Structures are written as SMILES. Several values for one entry are separate records, joined by “and”; a condition that tells them apart may be missing. Equal entries are not always repeated.

With `C=C1CC2(CCC3(O)[C@H]4Cc5ccc(O)c6c5[C@@]3(CCN4CC3CC3)C2O6)OC1=O` (stereo in doubt; 4a), the Ratio in assay [1] turned out to be 0.8.

For `C=C1CC2(CCC3(O)[C@H]4Cc5ccc(O)c6c5[C@@]3(CCN4C)C2O6)OC1=O` (stereo in doubt; 4b), the Ratio in assay [1] was 7.6.

For the molecule `C=C1CC2(CCC3(O)[C@H]4Cc5ccc(O)c6c5[C@@]3(CCN4CC3CC3)C2O6)OC1=O` (stereo in doubt; 5a) [listing 1 of 2 here], the Control in assay [2] is 80%; in assay [3], 28% and 13%; in assay [4], 93%.

Regarding `C=C1CC2(CCC3(O)[C@H]4Cc5ccc(O)c6c5[C@@]3(CCN4CC3CC3)C2O6)OC1=O` (stereo in doubt; 5a) [listing 2 of 2 here], the Ratio in assay [1] came to 0.4.

For the molecule `C=C1CC2(CCC3(O)[C@H]4Cc5ccc(O)c6c5[C@@]3(CCN4C)C2O6)OC1=O` (stereo in doubt; 5b), the Ratio in assay [1] worked out at 7.1.
